Experimental findings from publication PMC3808368 (2013) are described below.

Molecules are shown by their SMILES.

The subject of assay [1] is ATP aptamer (ATP aptamer G-quadruplex) (DNA, aptamer) AACCTGGGGGAGTATTGCGGAGGAAGGT
Put plainly: fluorescence, tracer in G4-FID. As to conditions: 100 mM KCl, 50 mM Tris-HCl pH 7.0, 0.25 µM DNA, 0.5 µM thiazole orange.

Assay [2] shares this test system. Put plainly: G4-FID, thiazole orange displacement. The note with it: 100 mM KCl; 50 mM Tris-HCl pH 7.0; 0.25 µM DNA; 0.5 µM thiazole orange displaced.
The test system of assay [3] is H21 (DNA, G4) GGGTTAGGGTTAGGGTTAGGG
Put plainly: luminescence enhancement of complex 2. The note with it: 50 mM KCl; 20-25 mM Tris-HCl pH 7.0; 1 µM complex, 5 µM DNA; up to 8-fold enhancement.

The subject of assay [4] is ATP aptamer duplex (ATP aptamer + complementary strand) (DNA, duplex) AACCTGGGGGAGTATTGCGGAGGAAGGT/ACCTTCCTCCGCAATACTCCCCCAGGTT
Description: luminescence enhancement of complex 2. The note with it: none added; 20 mM Tris-HCl pH 7.3, 25°C; slightly emissive without ATP.

Assay [5] has as its system HTS (DNA, G4) TTAGGGTTAGGGTTAGGGTTAGGG
Description: luminescence enhancement of complex 2. As to conditions: 50 mM KCl; 20-25 mM Tris-HCl pH 7.0; 1 µM complex, 5 µM DNA; up to 8-fold enhancement.

Assay [6] relates to ssDNA (DNA, single strand) GAAATTCTTAAGTGCGATCGAG
Put plainly: luminescence enhancement of complex 2. As to conditions: 50 mM KCl; 20-25 mM Tris-HCl pH 7.0; 1 µM complex, 5 µM DNA; minimal luminescence change.

On to `CN1C(=Cc2cc[n+](C)c3ccccc23)Sc2ccccc21`, for which the binding result in assay [1] is listed as “yes”.
Regarding `[Ir+3].[c-]1ccccc1-c1ccccn1.[c-]1ccccc1-c1ccccn1.c1ccc2nc(-c3ccc4ccccc4n3)ccc2c1`, the G4DC50 in assay [2] is > 6 µM.
Regarding `[Ir+3].[c-]1ccccc1-c1nccc2ccccc12.[c-]1ccccc1-c1nccc2ccccc12.c1ccc2nc(-c3ccc4ccccc4n3)ccc2c1`, the binding entry in assay [3] is “yes”; in assay [4], “weak”; in assay [5] it was “yes”; in assay [6], “no”. The compound further showed a G4DC50 in assay [2] of 5 µM.
